Data reported in patent publication US20030139467A1, “Diuretics containing y-tocotrienol” (priority 2000, published 2003).

How the values were obtained:
[1] = Amount of γ-CEHC excreted in urine after oral γ-tocotrienol or γ-tocopherol in vitamin E-deficient rats; format: in vivo, Sprague-Dawley strain male rats; details: oral 10 mg/0.5 ml in stripped corn oil, total over 48 hours, versus γ-tocopherol in the same amount, FIG. 2
Protocol: (§1) Seven-week-old Sprague-Dawley strain male rats, purchased from Nippon Clare Co., Ltd., were preliminarily bred with solid feed CE-2 (Nippon Clare Co., Ltd.) for 1 week and then bred with vitamin E-deficient feed for 4 weeks. The rats were placed in a stainless steel cage/rat, and the breeding room was maintained at a temperature of 22±1° C. in 50 % humidity. The animals were allowed feed and water ad libitum.
(§2) The feed was prepared by adding 10% corn oil (stripped corn oil) from which vitamin E had been removed by molecular distillation, to vitamin E-deficient powdery feed.
(§3) The bred vitamin E-deficient-rats were divided into 2 groups and fasted for 17 hours, and each rat in one group was orally given 10 mg/0.5 ml γ-tocotrienol dissolved in stripped corn oil, while as the control, each rat in the other group was orally given 10 mg/0.5 ml γ-tocopherol in analogous manner. After the administration, the rats in a urine collection group were placed in a metabolic cage/rat, and their urine was collected at 6-hours intervals for 48 hours during which a collection vessel was cooled on dry ice. The rats in a bile collection group were anesthetized with Nembutal in 2 hours after the administration in consideration of absorption time, and the abdomens of the rats were opened with their back fixed under anesthesia and a canula was inserted into the bile duct. […]

[2] = Amount of γ-CEHC excreted in bile after oral γ-tocotrienol or γ-tocopherol in vitamin E-deficient rats; format: in vivo, Sprague-Dawley strain male rats; details: oral 10 mg/0.5 ml in stripped corn oil, bile collected for 24 hours, versus γ-tocopherol, FIG. 3
Protocol: as §1, §2, §3

[3] = Effect of γ-tocotrienol on urine volume and on excretion of sodium and potassium into urine; format: in vivo, SD strain male rats; details: for volume of urine, corrected with creatinine: high-salt feed groups, FIG. 4
Protocol: Seven-week-old SD strain male rats (n=20) were preliminarily bred with solid feed and divided into 2 groups. One group was given vitamin E-deficient feed (AIN-76) and used as a control group. The other group was given high-salt feed prepared by adding 5% common salt to 1 kg vitamin E-deficient feed and used as a group given high-salt (high-Na) feed. Each animal in both the groups was given 20 g feed/day for 1 week and 25 g feed/day during a period of from the second to fourth weeks. 150 ml of purified water was given as drinking water, and the remainder of the water was measured. After 4 weeks, each group was further divided into 2 groups, and each rat in one group was given 10 mg γ-tocotrienol (control +γ-tocotrienol, High-Na+γ-tocotrienol) dissolved in stripped corn oil while the other group i.e. the control was given stripped corn oil (control, High-Na) for 3 consecutive days respectively, and after administration, their urine, while being frozen on dry ice, was collected at 6-hours intervals for 24 hours. The amounts of sodium and potassium in the urine were determined by the atomic absorption method and the amount of γ-CEHC by the ECD-HPLC method.

CC(C)=CCC/C(C)=C/CC/C(C)=C/CCC1(C)CCc2cc(O)c(C)c(C)c2O1 (stereo not drawn) [γ-tocotrienol, 2,7,8-trimethyl-2-(4,8,12-trimethyltrideca-3,7,11-trienyl)chroman-6-ol]
amount of γ-CEHC excreted in urine for a period of up to 48 hours [1]: significantly higher than in the group given γ-tocopherol | γ-CEHC excreted into the bile [2]: larger in the group given γ-tocotrienol than in the group given γ-tocopherol | amount of potassium excreted in urine ([3]; 4 groups (control and high-salt feed, with or without 10 mg γ-tocotrienol), atomic absorption method, FIG. 6): the influence of γ-tocotrienol administration was not observed | volume of urine, corrected with creatinine ([3]; 10 mg γ-tocotrienol for 3 consecutive days versus stripped corn oil, over 24 hours): tended to be larger in the group given γ-tocotrienol | volume of urine, corrected with creatinine ([3]; 10 mg γ-tocotrienol versus stripped corn oil, 6 to 12 hours after the administration): significantly increased for 6 to 12 hours after the administration | amount of sodium excreted in urine ([3]; high-salt group, 10 mg γ-tocotrienol versus stripped corn oil, atomic absorption method, FIG. 5): significantly larger amount of excreted sodium for a period of up to 12 hours after the administration
